Source: paper PMC2642729, “Interpain A, a Cysteine Proteinase from Prevotella intermedia, Inhibits Complement by Degrading Complement Factor C3” (PLoS Pathogens, 2009)

Biological target: T1, interpain A (InpA) (Prevotella intermedia, UniProt A9J7N5)
T1 construct: gene pin0048; full precursor 868 residues with 44-residue signal peptide; mature form 28 kDa (Val112-Pro359)
Test: active-site titration; residual activity by AMC release from Boc-Val-Leu-Lys-AMC
Type: biochemical
Settings: titrated to total inactivation; pH 7.5, 5 mM EDTA, 2 mM DTT; 37 min preincubation at room temperature; covalent active-site cysteine inhibitor (mode known, not given)

T1 sequence (A9J7N5 entry or part of it): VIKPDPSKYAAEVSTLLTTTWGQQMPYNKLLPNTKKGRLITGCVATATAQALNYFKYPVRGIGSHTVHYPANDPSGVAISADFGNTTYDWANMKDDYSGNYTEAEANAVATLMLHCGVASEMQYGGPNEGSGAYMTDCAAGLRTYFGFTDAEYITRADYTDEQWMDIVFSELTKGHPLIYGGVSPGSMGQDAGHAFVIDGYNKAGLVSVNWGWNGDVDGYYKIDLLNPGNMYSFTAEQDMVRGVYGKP

## CC(C)C[C@H](NC(=O)[C@H]1O[C@@H]1C(=O)O)C(=O)NCCCCNC(=N)N [E64]
  active-site titration; residual activity by AMC release from Boc-Val-Leu-Lys-AMC: determined by active site titration using inhibitor E64 (Sigma)
